Like-named read-outs stand apart in the source and are kept apart here.
Tested on: HIV-1 (H9IIIB strain)
Test: Cell-based HIV infection assay using a reporter (Cell-Based), MT4-GFP cells
Details: 50% normal human serum, mean of at least two independent experiments, read-out: Cell-based IP
Method in brief: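 IC50 from 4-parameter dose-response of % viral growth inhibition, using the 48 h/24 h infected-cell ratio scaled between DMSO and a protease/integrase/NNRTI triple-drug control. Assay used MT4 cells with HIV-LTR-GFP reporter, pre-infected 24 h with HIV-1 H9IIIB, in 50% normal human serum.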

[1] = Human immunodeficiency virus 1, MT4-GFP cells infected with HIV-1 H9IIIB

Structure (SMILES)	IC50 [1] [nM]	IC50 (MT4-GFP cells infected with HIV-1 H9IIIB) [nM]
CC(C)[C@H](c1ccc(Cl)cc1)[C@H](N)C(=O)Nc1cncc(F)c1CC[C@H]1CNC[C@@H](C)N1S(=O)(=O)c1ccccc1 [Example 254, (βR)-4-chloro-N-(5-fluoro-4-{2-[(2S,6R)-6-methyl-1-(phenylsulfonyl)piperazin-2-yl]ethyl}pyridin-3-yl)-β-(1-methylethyl)-L-phenylalaninamide]	16	
C[C@@H]1CNC[C@H](CCc2c(F)cccc2NC(=O)CC(c2ccc(F)cc2)c2ccc(F)cc2)N1S(=O)(=O)c1ccccc1 [Example 90, N-(3-fluoro-2-{2-[(2S,6R)-6-methyl-1-(phenylsulfonyl)piperazin-2-yl]ethyl}phenyl)-3,3-bis(4-fluorophenyl) propanamide]	66	
O=C(C[C@@H](c1ccc(F)cc1)c1cc(F)cc(F)c1)Nc1cncc(F)c1CC[C@H]1CNCCN1S(=O)(=O)Cc1ccc(C(F)(F)F)cc1 [Example 310, (3S)-3-(3,5-difluorophenyl)-3-(4-fluorophenyl)-N-(5-fluoro-4-{2-[(2S)-1-{[4-(trifluoromethyl)benzyl]sulfonyl}piperazin-2-yl]ethyl}pyridin-3-yl)propanamide]	1700	
COC(=O)N[C@H](C(=O)Nc1cccc(F)c1CC[C@H]1CNC[C@H](C)N1S(=O)(=O)c1ccccc1)C1(c2ccc(F)c(F)c2)CCOCC1 [Example 297, methyl {(1S)-1-[4-(3,4-difluorophenyl)tetrahydro-2H-pyran-4-yl]-2-[(3-fluoro-2-{2-[(2S,6S)-6-methyl-1-(phenylsulfonyl)piperazin-2-yl]ethyl}phenyl)amino]-2-oxoethyl}carbamate]	16	
C[C@H]1CNC[C@H](CCc2c(F)cccc2NC(=O)[C@@H](N)[C@@H](Cc2ccc(F)cc2)c2ccc(Cl)cc2)N1S(C)(=O)=O [Example 202, (βS)-4-chloro-β-(4-fluorobenzyl)-N-(3-fluoro-2-{2-[(2S,6S)-6-methyl-1-(methylsulfonyl)piperazin-2-yl]ethyl}phenyl)-L-phenylalaninamide]	620	
C[C@@H]1CNC[C@H](CCc2c(F)cccc2NC(=O)[C@@H](N)[C@@H](Cc2ccc(F)cc2)c2ccc(Cl)cc2)N1S(=O)(=O)c1ccccc1 [Example 195, (βS)-4-chloro-β-(4-fluorobenzyl)-N-(3-fluoro-2-{2-[(2S,6R)-6-methyl-1-(phenylsulfonyl)piperazin-2-yl]ethyl}phenyl)-L-phenylalaninamide]	77	
CC(C)[C@H](c1ccc(Cl)cc1)[C@H](N)C(=O)Nc1cccc(F)c1CC[C@H]1CNC[C@@H](C)N1S(=O)(=O)c1ccccc1 [Example 110, (βR)-4-chloro-N-(3-fluoro-2-{2-[(2S,6R)-6-methyl-1-(phenylsulfonyl)piperazin-2-yl]ethyl}phenyl)-β-(1-methylethyl)-L-phenylalaninamide]	74	
COC(=O)N[C@H](C(=O)Nc1cccc(F)c1CC[C@H]1CNC[C@H](C)N1S(=O)(=O)c1ccccc1Cl)[C@@H](c1ccc(F)cc1)c1cc(F)cc(F)c1 [Example 231, (βS)-N-[2-(2-{(2S,6S)-1-[(2-chlorophenyl)sulfonyl]-6-methylpiperazin-2-yl}ethyl)-3-fluorophenyl]-β-(3,5-difluorophenyl)-4-fluoro-Nα-(methoxycarbonyl)-L-phenylalaninamide]	230	
COC(=O)N[C@H](C(=O)Nc1cccc(F)c1CC[C@H]1CNCCN1S(=O)(=O)c1ccccc1)[C@@H](c1ccc(Cl)cc1)c1cncc(C(F)(F)F)c1 [Example 66, (βS)-4-chloro-N-(3-fluoro-2-{2-[(2S)-1-(phenylsulfonyl)piperazin-2-yl]ethyl}phenyl)-Nα-(methoxycarbonyl)-β-[5-(trifluoromethyl)pyridin-3-yl]-L-phenylalaninamide]	12	
Nc1ccc(S(=O)(=O)N2CCNC[C@@H]2CCc2c(F)cncc2NC(=O)C[C@@H](c2ccc(F)cc2)c2cc(F)cc(F)c2)cn1 [Example 307, (3S)-N-[4-(2-{(2S)-1-[(6-aminopyridin-3-yl)sulfonyl]piperazin-2-yl}ethyl)-5-fluoropyridin-3-yl]-3-(3,5-difluorophenyl)-3-(4-fluorophenyl)propanamide]	130	
COc1ccc(S(=O)(=O)N2[C@@H](CCc3c(F)cccc3NC(=O)[C@@H](N)[C@@H](c3ccc(Cl)cc3)C(C)C)CNC[C@@H]2C)cc1 [Example 124, (βR)-4-chloro-N-[3-fluoro-2-(2-{(2S,6S)-1-[(4-methoxyphenyl)sulfonyl]-6-methylpiperazin-2-yl}ethyl)phenyl]-β-(1-methylethyl)-L-phenylalaninamide]	63	
Cc1ccc(S(=O)(=O)N2CCNC[C@@H]2CCc2c(F)cccc2NC(=O)[C@@H](N)[C@@H](c2ccc(F)cc2)c2cc(F)cc(F)c2)o1 [Example 373, (2S,3S)-2-amino-3-(3,5-difluorophenyl)-N-(3-fluoro-2-(2-((S)-1-((5-methylfuran-2-yl)sulfonyl)piperazin-2-yl)ethyl)phenyl)-3-(4-fluorophenyl)propanamide]	4.2	
COC(=O)N[C@H](C(=O)Nc1cccc(F)c1CC[C@H]1CNC[C@@H](C)N1S(=O)(=O)c1ccccc1)[C@@H](c1ccc(Cl)cc1)c1ccc(OC)nc1 [Example 120, (βS)-4-chloro-N-(3-fluoro-2-{2-[(2S,6R)-6-methyl-1-(phenylsulfonyl)piperazin-2-yl]ethyl}phenyl)-Nα-(methoxycarbonyl)-β-(6-methoxypyridin-3-yl)-L-phenylalaninamide]	19	
COC(=O)NC(C(=O)NC1CC(F)(F)CC1CC[C@H]1CNCCN1S(=O)(=O)c1ccccc1)C(c1ccc(F)cc1)c1ccc(F)cc1 (stereo in doubt) [Example 358, Methyl ((2R)-1-((4,4-difluoro-2-(2-((S)-1-(phenylsulfonyl)piperazin-2-yl)ethyl)cyclopentyl)amino)-3,3-bis(4-fluorophenyl)-1-oxopropan-2-yl)carbamate]		160
N[C@H](C(=O)Nc1cncc(F)c1CC[C@H]1CNCCN1S(=O)(=O)N1CCCC1)[C@@H](c1ccc(F)cc1)c1cc(F)cc(F)c1 [Example 83, (βS)-3,5-difluoro-β-(4-fluorophenyl)-N-(5-fluoro-4-{2-[(2S)-1-(pyrrolidin-1-ylsulfonyl)piperazin-2-yl]ethyl}pyridin-3-yl)-L-phenylalaninamide]	8.9	
N[C@H](C(=O)Nc1cccc(F)c1CC[C@H]1CNCCN1S(=O)(=O)c1ccccc1)[C@@H](c1ccc(Cl)cc1)c1cc(F)cc(F)c1 [Example 43, (βS)-4-chloro-β-(3,5-difluorophenyl)-N-(3-fluoro-2-{2-[(2S)-1-(phenylsulfonyl)piperazin-2-yl]ethyl}phenyl)-L-phenylalaninamide]	12	
COc1ccc(S(=O)(=O)N2[C@@H](CCc3c(F)cccc3NC(=O)[C@@H](N)[C@@H](Cc3ccc(F)cc3)c3ccc(Cl)cc3)CNC[C@@H]2C)cc1 [Example 186, (βS)-4-chloro-β-(4-fluorobenzyl)-N-[3-fluoro-2-(2-{(2S,6S)-1-[(4-methoxyphenyl)sulfonyl]-6-methylpiperazin-2-yl}ethyl)phenyl]-L-phenylalaninamide]	86	
COC(=O)N[C@H](C(=O)Nc1cccc(F)c1CC[C@H]1CNC[C@H](C)N1S(=O)(=O)c1ccccc1)C1(c2cc(F)cc(F)c2)CCOCC1 [Example 286, methyl {(1S)-1-[4-(3,5-difluorophenyl)tetrahydro-2H-pyran-4-yl]-2-[(3-fluoro-2-{2-[(2S,6S)-6-methyl-1-(phenylsulfonyl)piperazin-2-yl]ethyl}phenyl)amino]-2-oxoethyl}carbamate]	33	
CC(C)(C)c1ccc(OCC(=O)N2CCNC[C@@H]2CCc2c(F)cncc2NC(=O)C[C@@H](c2ccc(F)cc2)c2cc(F)cc(F)c2)cc1 [Example 349, (3S)-N-[4-(2-{(2S)-1-[(4-tert-butylphenoxy)acetyl]pipe-razin-2-yl}ethyl)-5-fluoropyridin-3-yl]-3-(3,5-difluorophenyl)-3-(4-fluorophenyl)propanamide]	1500	
N[C@H](C(=O)Nc1cccc(F)c1CC[C@H]1CNCCN1S(=O)(=O)c1ccccc1)[C@H](CCC1CCOCC1)c1ccc(Cl)c(F)c1 [Example 72, (βR)-4-chloro-3-fluoro-N-(3-fluoro-2-{2-[(2S)-1-(phenylsulfonyl)piperazin-2-yl]ethyl}phenyl)-β-[2-(tetrahydro-2H-pyran-4-yl)ethyl]-L-phenylalaninamide]	21	
COC(=O)N[C@H](C(=O)Nc1cccc(F)c1CC[C@H]1CNC[C@H](C)N1S(=O)(=O)c1ccc(OC(F)(F)F)cc1)[C@@H](Cc1ccc(F)cc1)c1ccc(Cl)cc1 [Example 221, (βS)-4-chloro-β-(4-fluorobenzyl)-N-(3-fluoro-2-{2-[(2S,6S)-6-methyl-1-{[4-(trifluoromethoxy)phenyl]sulfonyl}piperazin-2-yl]ethyl}phenyl)-Nα-(methoxycarbonyl)-L-phenylalaninamide]	230	
COC(=O)N[C@H](C(=O)Nc1cccc(F)c1CC[C@H]1CNCCN1S(C)(=O)=O)[C@@H](c1ccc(Cl)cc1)C1CCOC(C)(C)C1 (stereo partly drawn) [Example 79, (βR)-4-chloro-β-(2,2-dimethyltetrahydro-2H-pyran-4-yl)-N-(3-fluoro-2-{2-[(2S)-1-(methylsulfonyl)piperazin-2-yl]ethyl}phenyl)-Nα-(methoxycarbonyl)-L-phenylalaninamide]	30	
CCN(CC)S(=O)(=O)N1CCNC[C@@H]1CCc1c(F)cncc1NC(=O)C[C@@H](c1ccc(F)cc1)c1cc(F)cc(F)c1 [Example 340, (3S)-N-(4-{2-[(2S)-1-(diethylsulfamoyl)pipera-zin-2-yl]ethyl}-5-fluoropyridin-3-yl)-3-(3,5-difluorophenyl)-3-(4-fluorophenyl)propanamide]	210	

— US9840478B2 (MERCK SHARP & DOHME CORP., priority 2013, dated 2017)
